Test results as given in patent US20070004660A1, “Synergistic Modulation of Flt3 Kinase Using Alkylquinolines and Alkylquinazolines” (priority 2005, published 2007).

Target: T1, wild-type FLT3 receptor (Homo sapiens, UniProt P36888)
T1 construct: host or cells: Baf3 (murine B cell lymphoma line), stably transfected
T1 sequence (P36888 27-993): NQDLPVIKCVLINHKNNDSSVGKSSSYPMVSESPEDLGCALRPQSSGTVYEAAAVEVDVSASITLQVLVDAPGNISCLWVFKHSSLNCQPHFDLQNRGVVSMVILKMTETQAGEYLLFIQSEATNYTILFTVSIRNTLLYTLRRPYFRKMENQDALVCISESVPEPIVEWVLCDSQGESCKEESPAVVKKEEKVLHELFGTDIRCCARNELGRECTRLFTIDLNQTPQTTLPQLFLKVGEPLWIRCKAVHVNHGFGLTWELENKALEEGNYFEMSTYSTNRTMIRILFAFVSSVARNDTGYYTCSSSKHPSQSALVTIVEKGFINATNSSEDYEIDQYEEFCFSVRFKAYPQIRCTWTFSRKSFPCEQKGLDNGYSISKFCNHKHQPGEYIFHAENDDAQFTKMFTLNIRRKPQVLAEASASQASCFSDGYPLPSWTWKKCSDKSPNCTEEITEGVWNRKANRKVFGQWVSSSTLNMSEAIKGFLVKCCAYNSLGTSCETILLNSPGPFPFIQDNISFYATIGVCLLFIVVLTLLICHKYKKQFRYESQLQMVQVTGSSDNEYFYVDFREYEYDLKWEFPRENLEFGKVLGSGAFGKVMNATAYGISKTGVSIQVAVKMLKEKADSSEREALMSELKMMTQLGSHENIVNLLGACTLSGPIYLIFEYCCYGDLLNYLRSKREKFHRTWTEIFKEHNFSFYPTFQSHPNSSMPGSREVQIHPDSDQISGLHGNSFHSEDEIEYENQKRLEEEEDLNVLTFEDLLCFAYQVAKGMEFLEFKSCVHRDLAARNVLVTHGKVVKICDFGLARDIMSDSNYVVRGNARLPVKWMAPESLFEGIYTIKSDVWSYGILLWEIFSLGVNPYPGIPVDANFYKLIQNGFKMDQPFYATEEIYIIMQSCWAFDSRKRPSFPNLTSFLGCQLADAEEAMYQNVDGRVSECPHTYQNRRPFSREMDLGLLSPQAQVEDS
Assay: Cell-based FLT3 receptor ELISA (FLT ligand-induced phosphorylation in Baf3 FLT3 cells)
Details: 100 ng/mL Flt ligand, uncertainty ±20%
Summary of the method: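 Receptor phosphotyrosine measured by sandwich ELISA (anti-FLT3 capture, HRP anti-pTyr, luminescence) in FLT3-transfected murine Baf3 cells given 1 h compound pretreatment and 10 min 100 ng/mL FLT ligand after overnight low-serum starvation; triplicates, IC50 from nonlinear regression.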

Which IC50 does the source give for `CCN1CCN(c2ccc3c(C4CCN(C(=O)Nc5ccc(N6CCOCC6)cc5)CC4)ncnc3c2)CC1` [Example 136, 4-[7-(4-Ethyl-piperazin-1-yl)-quinazolin-4-yl]-piperidine-1-carboxylic acid (4-morpholin-4-yl-phenyl)-amide] here?
The IC50 was 36 nM.

With `O=C(Nc1ccc(N2CCCC2)cc1)N1CCC(c2ncnc3cc(N4CCSCC4)ccc23)CC1` [Compound 182, 4-(7-Thiomorpholin-4-yl-quinazolin-4-yl)-piperidine-1-carboxylic acid (4-pyrrolidin-1-yl-phenyl)-amide] as the molecule, how does the IC50 read?
Its IC50 is 24 nM.

With `O=C(Nc1ccc(N2CCCC2)cc1)N1CCC(c2ncnc3cc(-n4ccnc4)ccc23)CC1` [Compound 180, 4-(7-Imidazol-1-yl-quinazolin-4-yl)-piperidine-1-carboxylic acid (4-pyrrolidin-1-yl-phenyl)-amide] as the molecule, how does the IC50 read?
Its IC50 is 10 nM.

With `O=C(Nc1ccc(N2CCOCC2)cc1)N1CCC(c2ncnc3cc(N4CCNC4=O)ccc23)CC1` [Compound 197, 4-[7-(2-Oxo-imidazolidin-1-yl)-quinazolin-4-yl]-piperidine-1-carboxylic acid (4-morpholin-4-yl-phenyl)-amide] as the molecule, how does the IC50 read?
Its IC50 is 78 nM.

Which IC50 does the source give for `O=C(Nc1ccc(N2CCCC2)cc1)N1CCC(c2ncnc3cc(OCCCN4CCC[C@H]4CO)ccc23)CC1` [Example 161, (S)-4-{7-[3-(2-Hydroxymethyl-pyrrolidin-1-yl)-propoxy]-quinazolin-4-yl}-piperidine-1-carboxylic acid (4-pyrrolidin-1-yl-phenyl)-amide] here?
Its IC50 is 59 nM.

How did the IC50 turn out when `O=C(Nc1ccc(N2CCOCC2)cc1)N1CCC(c2ncnc3cc(N4CC[C@H](O)C4)ccc23)CC1` [Example 128, 4-[7-(3-Hydroxy-pyrrolidin-1-yl)-quinazolin-4-yl]-piperidine-1-carboxylic acid (4-morpholin-4-yl-phenyl)-amide] was run?
The IC50 was 58 nM.

`O=C(Nc1ccc(N2CCCC2)cc1)N1CCC(c2ncnc3cc(Oc4cccnc4)ccc23)CC1` [Example 174, 4-[7-(Pyridin-3-yloxy)-quinazolin-4-yl]-piperidine-1-carboxylic acid (4-pyrrolidin-1-yl-phenyl)-amide] was tested. Which IC50 did it give?
The IC50 was 130 nM.

For `O=C(Nc1ccc(N2CCOCC2)cc1)N1CCC(c2ncnc3cc(N4CCC(F)CC4)ccc23)CC1` [Compound 196, 4-[7-(4-Fluoro-piperidin-1-yl)-quinazolin-4-yl]-piperidine-1-carboxylic acid (4-morpholin-4-yl-phenyl)-amide], which IC50 is on record?
Its IC50 is 3 nM.

Which IC50 does the source give for `O=C(Nc1ccc(N2CCOCC2)cc1)N1CCC(c2ncnc3cc(OCCN4CCOC4=O)ccc23)CC1` [Example 148, 4-{7-[2-(2-Oxo-oxazolidin-3-yl)-ethoxy]-quinazolin-4-yl}-piperidine-1-carboxylic acid (4-morpholin-4-yl-phenyl)-amide] here?
The IC50 was 83 nM.

With `O=C(Nc1ccc(N2CCOCC2)cc1)N1CCC(c2ncnc3cc(N4CCC[C@H]4CO)ccc23)CC1` [Example 139, (S)-4-[7-(2-Hydroxymethyl-pyrrolidin-1-yl)-quinazolin-4-yl]-piperidine-1-carboxylic acid (4-morpholin-4-yl-phenyl)-amide] as the molecule, how does the IC50 read?
The IC50 was 211 nM.

For `O=C(Nc1ccc(N2CCOCC2)cc1)N1CCC(c2ncnc3cc(OCCN4CCC[C@H]4CO)ccc23)CC1` [Example 153, (S)-4-{7-[2-(2-Hydroxymethyl-pyrrolidin-1-yl)-ethoxy]-quinazolin-4-yl}-piperidine-1-carboxylic acid (4-morpholin-4-yl-phenyl)-amide], which IC50 is on record?
The IC50 was 110 nM.

How did the IC50 turn out when `CS(=O)(=O)CCNc1ccc2c(C3CCN(C(=O)Nc4ccc(N5CCOCC5)cc4)CC3)ncnc2c1` [Example 146, 4-[7-(2-Methanesulfonyl-ethylamino)-quinazolin-4-yl]-piperidine-1-carboxylic acid (4-morpholin-4-yl-phenyl)-amide] was run?
Its IC50 is 87 nM.

`CC(=O)N1CC[C@@H](Oc2ccc3c(C4CCN(C(=O)Nc5ccc(N6CCCC6)cc5)CC4)ncnc3c2)C1` [Example 154, (R)-4-[7-(1-Acetyl-pyrrolidin-3-yloxy)-quinazolin-4-yl]-piperidine-1-carboxylic acid (4-pyrrolidin-1-yl-phenyl)-amide] was tested. Which IC50 did it give?
Its IC50 is 2 nM.

Which IC50 does the source give for `CN1CCN(CCOc2ccc3c(C4CCN(C(=O)Nc5ccc(N6CCCC6)cc5)CC4)ncnc3c2)CC1` [Example 157, 4-{7-[2-(4-Methyl-piperazin-1-yl)-ethoxy]-quinazolin-4-yl}-piperidine-1-carboxylic acid (4-pyrrolidin-1-yl-phenyl)-amide] here?
Its IC50 is 16 nM.

`O=C(Nc1ccc(N2CCCC2)cc1)N1CCC(c2ncnc3cc(N4CCCC4)ccc23)CC1` [Compound 179, 4-(7-Pyrrolidin-1-yl-quinazolin-4-yl)-piperidine-1-carboxylic acid (4-pyrrolidin-1-yl-phenyl)-amide] was tested. Which IC50 did it give?
The IC50 was 49 nM.

For `CNC(=O)C1CCN(c2ccc3c(C4CCN(C(=O)Nc5ccc(N6CCCC6)cc5)CC4)ncnc3c2)CC1` [Example 155, 4-[7-(4-Carboxylic acid methylamide-piperidin-1-yl)-quinazolin-4-yl]-piperidine-1-carboxylic acid (4-pyrrolidin-1-yl-phenyl)-amide], which IC50 is on record?
Its IC50 is 0.4 nM.

For `O=C(Nc1ccc(N2CCCC2)cc1)N1CCC(c2ncnc3cc(N4CCN(c5ccncc5)CC4)ccc23)CC1` [Compound 194, 4-[7-(4-Pyridin-4-yl-piperazin-1-yl)-quinazolin-4-yl]-piperidine-1-carboxylic acid (4-pyrrolidin-1-yl-phenyl)-amide], which IC50 is on record?
Its IC50 is 11 nM.

How did the IC50 turn out when `CS(=O)(=O)N1CCN(c2ccc3c(C4CCN(C(=O)Nc5ccc(N6CCCC6)cc5)CC4)ncnc3c2)CC1` [Example 167, 4-[7-(4-Methanesulfonyl-piperazin-1-yl)-quinazolin-4-yl]-piperidine-1-carboxylic acid (4-pyrrolidin-1-yl-phenyl)-amide] was run?
The IC50 was 3 nM.

For `COCCN1CCN(c2ccc3c(C4CCN(C(=O)Nc5ccc(N6CCCC6)cc5)CC4)ncnc3c2)CC1` [Compound 186, 4-{7-[4-(2-Methoxy-ethyl)-piperazin-1-yl]-quinazolin-4-yl}-piperidine-1-carboxylic acid (4-pyrrolidin-1-yl-phenyl)-amide], which IC50 is on record?
Its IC50 is 3 nM.

How did the IC50 turn out when `O=C(Nc1ccc(N2CCCC2)cc1)N1CCC(c2ncnc3cc(N4CCOC4=O)ccc23)CC1` [Example 176, 4-[7-(2-Oxo-oxazolidin-3-yl)-quinazolin-4-yl]-piperidine-1-carboxylic acid (4-pyrrolidin-1-yl-phenyl)-amide] was run?
Its IC50 is 7 nM.

`CS(=O)(=O)N1CC(Oc2ccc3c(C4CCN(C(=O)Nc5ccc(N6CCCC6)cc5)CC4)ncnc3c2)C1` [Example 171, 4-[7-(1-Methanesulfonyl-azetidin-3-yloxy)-quinazolin-4-yl]-piperidine-1-carboxylic acid (4-pyrrolidin-1-yl-phenyl)-amide] was tested. Which IC50 did it give?
Its IC50 is 10 nM.

With `CN1CCN(c2ccc3c(C4CCN(C(=O)Nc5ccc(N6CCCC6)nc5)CC4)ncnc3c2)CC1` [Example 160, 4-[7-(4-Methyl-piperazin-1-yl)-quinazolin-4-yl]-piperidine-1-carboxylic acid (6-pyrrolidin-1-yl-pyridin-3-yl)-amide] as the molecule, how does the IC50 read?
The IC50 was 11 nM.

Which IC50 does the source give for `CN(C)[C@@H]1CCN(c2ccc3c(C4CCN(C(=O)Nc5ccc(N6CCCC6)cc5)CC4)ncnc3c2)C1` [Example 149, (R)-4-[7-(3-Dimethylamino-pyrrolidin-1-yl)-quinazolin-4-yl]-piperidine-1-carboxylic acid (4-pyrrolidin-1-yl-phenyl)-amide] here?
The IC50 was 3 nM.

For `O=C(Nc1ccc(N2CCOCC2)cc1)N1CCC(c2ncnc3cc(OCCCN4CCOCC4)ccc23)CC1` [Example 133, 4-[7-(3-Morpholin-4-yl-propoxy)-quinazolin-4-yl]-piperidine-1-carboxylic acid (4-morpholin-4-yl-phenyl)-amide], which IC50 is on record?
Its IC50 is 26 nM.

How did the IC50 turn out when `O=C(Nc1ccc(N2CCCC2)cc1)N1CCC(c2ncnc3cc(N4CCN(CCO)CC4)ccc23)CC1` [Compound 185, 4-{7-[4-(2-Hydroxy-ethyl)-piperazin-1-yl]-quinazolin-4-yl}-piperidine-1-carboxylic acid (4-pyrrolidin-1-yl-phenyl)-amide] was run?
Its IC50 is 1 nM.

Which IC50 does the source give for `O=C1CN(c2ccc3c(C4CCN(C(=O)Nc5ccc(N6CCCC6)cc5)CC4)ncnc3c2)CCN1` [Compound 183, 4-[7-(3-Oxo-piperazin-1-yl)-quinazolin-4-yl]-piperidine-1-carboxylic acid (4-pyrrolidin-1-yl-phenyl)-amide] here?
The IC50 was 31 nM.

With `CC(=O)N1CCN(c2ccc3c(C4CCN(C(=O)Nc5ccc(N6CCOCC6)cc5)CC4)ncnc3c2)CC1` [Example 141, 4-[7-(4-Acetyl-piperazin-1-yl)-quinazolin-4-yl]-piperidine-1-carboxylic acid (4-morpholin-4-yl-phenyl)-amide] as the molecule, how does the IC50 read?
Its IC50 is 2 nM.
